These results are taken from patent publication US9751851B2, “Molecules and compositions that inhibit gram negative bacteria and their uses” (THE TRUSTEES OF PRINCETON UNIVERSITY, priority 2013, dated 2017).

Assay [1] deals with wild-type P. aeruginosa PA14. As to the kind of experiment: microbe, parasite or virus in culture. As to conditions: for Efficacy (%) / inhibition at 100 µM: reduction of pyocyanin vs WT P. aeruginosa PA14: 0% = WT level, 100% = background medium; for IC50: read-out: IC50 for inhibition of pyocyanin production; for inhibition of pyocyanin production (in words): wild-type P. aeruginosa PA14, end point assays at 100 μM. Format: cell-based. The protocol: Methods. The oxidized form of pyocyanin imparts a green color to P. aeruginosa cultures, making the production of pyocyanin convenient to monitor by UV/Vis absorbance. Overnight P. aeruginosa cultures were subcultured into 5 mL fresh medium at 1:1000 dilution. Synthetic compounds were assayed at 100 μM for end point assays and at concentrations ranging from 200 nM to 200 μM for titrations following 17 hr of aerobic growth with shaking at 37° C. Cells were separated from culture fluids via centrifugation at 13,000 rpm for 15 min. Culture fluids were passed through 0.22 μm syringe driven filters (Millipore). Cell-free culture fluids were analyzed for pyocyanin using wavelength scans on a Beckman Coulter DU-800 spectrophotometer from 200 nm to 800 nm 695 nm was chosen for graphical representation. Titration data were fit with a variable-slope sigmoidal dose-response curve using GraphPad Prism to determine the IC50 values.
The compounds of the first library were assayed in wild-type (WT) P. aeruginosa PA14. Pyocyanin was used as a read-out for quorum sensing activity based on its absorbance at 695 nm. The efficacy of the compounds at reducing pyocyanin levels was calculated with respect to WT levels of pyocyanin, where WT levels of pyocyanin would lead to a 0% efficacy, and an absorbance equal to the background medium would lead to a 100% efficacy. Agonists that increase pyocyanin production have negative efficacy values.

Another assay relates to P. aeruginosa PA14. As to the kind of experiment: Growth of P. aeruginosa monitored by absorbance at 600 nm. Format: cell-based.
Setting [2] is: Pseudomonas aeruginosa, PA14, 17 h, read-out: Efficacy (%), Table 3.
Where [3] appears, read: Pseudomonas aeruginosa, PA14, 17 h, read-out: Efficacy (%), Table 4.
Setting [4] is: Pseudomonas aeruginosa, PA14, 17 h.
The mark [5] stands for this setting: WT P. aeruginosa PA14, 17 hr growth, titration.

Read-outs that look alike come from different tables or passages of the source.

Regarding `O=C(COc1cccc(Br)c1)Nc1ccnc(C(F)(F)F)c1` [S57, 4-amino-2-trifluoromethylpyridine-C5-3-bromophenoxyhybrid], the “Efficacy (%)” value in assay [1] (Table 3, listed as Table 3 entry 17) worked out at 95%; in assay [1] (Table 3, listed as drawing 75) it was 95 ± 5%.

As for `O=C(COc1cccc(Br)c1)Nc1ccnc(C(F)(F)F)c1` [S58, 4-amino-2-trifluoromethylpyridine-C7-3-bromophenoxyhybrid], the “Efficacy (%)” value in assay [1] (Table 3, listed as drawing 77) was 23 ± 7%.

In the case of `O=C(COc1cccc(Br)c1)Nc1cccc(C(F)(F)F)c1` [S59, 1-amino-3-trifluoromethyl-C6-3-bromophenoxyhybrid], in assay [1] (setting [2]), the inhibition at 100 µM was 62%. Moreover, in assay [1] (Table 3), the “Efficacy (%)” value came to 62 ± 6%.

Regarding `O=C(COc1cccc(Br)c1)Nc1cc(C(F)(F)F)cc(C(F)(F)F)c1` [S60, 1-amino-3,5-bis(trifluoromethyl)-C6-3-bromophenoxyhybrid], in assay [1] (setting [2]), the inhibition at 100 µM came to 44%. The “Efficacy (%)” value in assay [1] (Table 3) is on record as 44 ± 8%.

`O=C(COc1cccc(Br)c1)Nc1ccncc1C(F)(F)F` [S62, 4-amino-3-trifluoromethylpyridine-C6-3-bromophenoxyhybrid]: the inhibition at 100 µM in assay [1] (setting [2]) was found to be 15%. In addition, the “Efficacy (%)” value in assay [1] (Table 3) stood at 15 ± 7%.

As for `O=C(COc1ccccc1Br)Nc1ccnc(C(F)(F)F)c1` [S65, 4-amino-2-trifluoromethylpyridine-C6-2-bromophenoxyhybrid], the inhibition at 100 µM in assay [1] (setting [3]) is 94%. In assay [1] (Table 4), the “Efficacy (%)” value is 94 ± 4%.

Take `O=C(COc1cccc(I)c1)Nc1ccnc(C(F)(F)F)c1` [S66, 4-amino-2-trifluoromethylpyridine-C6-3-iodophenoxyhybrid]: the inhibition at 100 µM in assay [1] (setting [3]) stood at 95%. Further, the “Efficacy (%)” value in assay [1] (Table 4) is 95 ± 3%.

On to `O=C(COc1cccc(Cl)c1)Nc1ccnc(C(F)(F)F)c1` [S67, 4-amino-2-trifluoromethylpyridine-C6-3-chlorophenoxyhybrid], for which the inhibition at 100 µM in assay [1] (setting [3]) stood at 101%. For the same compound, the “Efficacy (%)” value in assay [1] (Table 4) is 101 ± 3%.

Consider `O=C(COc1ccc(F)cc1)Nc1ccnc(C(F)(F)F)c1` [S68, 4-amino-2-trifluoromethylpyridine-C6-4-fluorophenoxyhybrid], for which, in assay [1] (setting [3]), the inhibition at 100 µM is 54%. The “Efficacy (%)” value in assay [1] (Table 4) is listed as 54 ± 4%.

Turning to `O=C(COc1ccccc1F)Nc1ccnc(C(F)(F)F)c1` [S69, 4-amino-2-trifluoromethylpyridine-C6-2-fluorophenoxyhybrid], in assay [1] (setting [3]), the inhibition at 100 µM is 78 ± 3%.

Turning to `O=C(COc1ccc(F)cc1F)Nc1ccnc(C(F)(F)F)c1` [S70, 4-amino-2-trifluoromethylpyridine-C6-2,4-bisfluorophenoxyhybrid], the inhibition at 100 µM in assay [1] (setting [3]) is 49 ± 3%.

In the case of `O=C(COc1c(F)cccc1F)Nc1ccnc(C(F)(F)F)c1` [S71, 4-amino-2-trifluoromethylpyridine-C6-2,6-bisfluorophenoxyhybrid], the inhibition at 100 µM in assay [1] (setting [3]) was 66 ± 4%.

On to `O=C(COc1c(F)c(F)c(F)c(F)c1F)Nc1ccnc(C(F)(F)F)c1` [S72, 4-amino-2-trifluoromethylpyridine-C6-perfluorophenoxyhybrid], for which the inhibition at 100 µM in assay [1] (setting [3]) was 21 ± 14%.

With `O=C(COc1cccc([N+](=O)[O-])c1)Nc1ccnc(C(F)(F)F)c1` [S73, 4-amino-2-trifluoromethylpyridine-C6-3-nitrophenoxyhybrid], the inhibition at 100 µM in assay [1] (setting [3]) worked out at 39 ± 36%.

Turning to `N#Cc1cccc(OCC(=O)Nc2ccnc(C(F)(F)F)c2)c1` [S74, 4-amino-2-trifluoromethylpyridine-C6-3-cyanophenoxyhybrid], the inhibition at 100 µM in assay [1] (setting [3]) came to 0.48 ± 7%.

Regarding `O=C(COc1cccc(C(F)(F)F)c1)Nc1ccnc(C(F)(F)F)c1` [S75, 4-amino-2-trifluoromethylpyridine-C6-3-trifluoromethylphenoxyhybrid], the inhibition at 100 µM in assay [1] (setting [3]) is 59 ± 3%.

Turning to `Cc1cccc(OCC(=O)Nc2ccnc(C(F)(F)F)c2)c1` [S76, 4-amino-2-trifluoromethylpyridine-C6-3-methylphenoxyhybrid], in assay [1] (setting [3]), the inhibition at 100 µM stood at 81%. The “Efficacy (%)” value in assay [1] (Table 4) is reported as 81 ± 4%.

As to `O=C(COc1cccc(O)c1)Nc1ccnc(C(F)(F)F)c1` [S77, 4-amino-2-trifluoromethylpyridine-C6-3-hydroxyphenoxyhybrid], the inhibition at 100 µM in assay [1] (setting [3]) amounted to 70%. The “Efficacy (%)” value in assay [1] (Table 4) is 70 ± 7%.

For the compound `O=C(COc1ccccc1O)Nc1ccnc(C(F)(F)F)c1` [S78, 4-amino-2-trifluoromethylpyridine-C6-2-hydroxyphenoxyhybrid], in assay [1] (setting [3]), the inhibition at 100 µM was found to be 95%. Besides, in assay [1] (Table 4), the “Efficacy (%)” value is reported as 95 ± 4%.

Turning to `O=C(CSc1cccc(F)c1)Nc1ccnc(C(F)(F)F)c1` [S79, 4-amino-2-trifluoromethylpyridine-C6-3-fluoroarylsulfide hybrid], the inhibition at 100 µM in assay [1] (setting [3]) was found to be 94%. For the same compound, the “Efficacy (%)” value in assay [1] (Table 4) is on record as 94 ± 4%.

Consider `O=C(CNc1cccc(F)c1)Nc1ccnc(C(F)(F)F)c1` [S80, 4-amino-2-trifluoromethylpyridine-C6-3-fluoroaniline hybrid], for which the inhibition at 100 µM in assay [1] (setting [3]) worked out at 100%. The “Efficacy (%)” value in assay [1] (Table 4) amounted to 100 ± 4%.

Take `O=C(CCCCC#Cc1cccc(F)c1)Nc1ccnc(C(F)(F)F)c1` [S82, 7-(3-fluorophenyl)-N-(2-(trifluoromethyl)pyridin-4-yl)hept-6-ynamide]: the inhibition at 100 µM in assay [1] (setting [3]) turned out to be 97%. The “Efficacy (%)” value in assay [1] (Table 4) is listed as 97 ± 4%.

For the compound `O=C(CCCCCCc1cccc(F)c1)Nc1ccnc(C(F)(F)F)c1` [S83, 7-(3-fluorophenyl)-N-(2-(trifluoromethyl)pyridin-4-yl)heptanamide], the inhibition at 100 µM in assay [1] (setting [3]) was 96%. Besides, the “Efficacy (%)” value in assay [1] (Table 4) came out at 96 ± 4%.

In the case of `CCCCCCCCCNC(=O)CC(=O)c1ccccc1` [V-06-018, reference compound], the IC50 (as a rule, the point on the concentration scale where inhibition reaches its midpoint) in assay [1] (setting [4]) was 18 µM.

In the case of `CCCCCCCCCC(=O)CC(=O)Nc1ccncc1` [compound 14, 3OC12-4-aminopyridine], the inhibition at 100 µM in assay [1] (Pseudomonas aeruginosa, PA14, 17 h, read-out: Efficacy (%), Table 1, negative = agonist) is 63 ± 2%. Further, in assay [1] (setting [4]), the IC50 stood at 0.16 µM.

Turning to `CCCCCCCCCCCC(=O)Nc1ccnc(F)c1` [compound 15, C12-4-amino-2-fluoropyridine], the inhibition at 100 µM in assay [1] (Pseudomonas aeruginosa, PA14, 17 h, read-out: Efficacy (%), Table 2, negative = agonist) worked out at 70%. For the same compound, the “Efficacy (%)” value in assay [1] (Table 2, negative = agonist) came to 70 ± 2%.

`O=C(COc1cccc(F)c1)Nc1ccnc(C(F)(F)F)c1` [compound 17, 4-amino-2-trifluoromethylpyridine-C6-3-fluorophenoxyhybrid]: the inhibition at 100 µM in assay [1] (setting [3]) came to 103%. The “Efficacy (%)” value in assay [1] (Table 4) was 103 ± 3%. Also, in assay [1], the “inhibition of pyocyanin production (in words)” value (shortened to “inhibition … (in words)”) was “highly effective at blocking pyocyanin production”.

Turning to `O=C(CCCCCCCCCCN=C=S)CC(=O)NC1CCOC1=O` (stereo not shown) [itc-13, reference compound], the IC50 in assay [1] (setting [5]) turned out to be 56 µM.

As to `O=C(CCCOc1cccc(Br)c1)N[C@H]1CCOC1=O` [mBL], the “inhibition … (in words)” value in assay [1] is listed as “most effective inhibitor of pyocyanin production”.

For `O=C(CCCOc1cccc(Cl)c1)NC1CCSC1=O` (stereo not shown) [mCTL], in assay [1] (setting [5]), the IC50 is 9 µM. Besides, the “inhibition … (in words)” value in assay [1] is on record as “potent inhibition of pyocyanin”. In the assay on P. aeruginosa PA14, the “effect on P. aeruginosa PA14 growth” value is “not affecting P. aeruginosa PA14 growth”.

On to “chlorothiolactone [CTL, reference compound]”, for which the “inhibition … (in words)” value in assay [1] is “Neither CL nor CTL inhibited pyocyanin production”.
